Source: PMC8205226, “HIV-1 Integrase Inhibitors with Modifications That Affect Their Potencies against Drug Resistant Integrase Mutants” (ACS Infectious Diseases, 2021)

Experiments:
Format in all cases: cell-based
HIV-1 IN mutant Y143H = assay: single-round infectivity assay, Y143H IN mutant; details: EC50 compound / EC50 DTG
Procedure: (§1) Figure 4 Mutations in the β5-α3 loop affect the antiviral potencies of the new compounds. The EC50 values were determined using a vector that carries the IN mutant in a single round infection assay. […] Error bars represent the standard deviations of independent experiments, n = 4, performed in triplicate.
(§2) WT and mutant HIV-1 viral vectors were used in single-round infectivity assays to determine the antiviral potencies (EC50 values) of the compounds and the effects of the mutants on the EC50 values as previously described.[30],[54] Single round infectivity measurements were determined as done previously.[38]
(§3) The vector pNLNgoMIVR-ΔENV.LUC has been described previously.[26] To produce the new IN mutants used in this study, the IN open reading frame was removed from pNLNgoMIVR-ΔENV.LUC by digestion with KpnI and SalI, and the resulting fragment was inserted between the KpnI and SalI sites of pBluescript KS+. Using that construct as the wild-type template, we prepared the following HIV-1 IN mutants using the QuikChange II XL site directed mutagenesis kit (Agilent Technologies, Santa Clara, CA) protocol: N117A, N117H, P142A, P142H, P142S, Y143C, Y143H, S230R, R231G, and R231K. The following sense oligonucleotides were used with matching cognate antisense oligonucleotides (not shown) (Integrated DNA Technologies, Coralville, IA) in the mutagenesis: N117A, 5′-[…]-3′; N117H, 5′-[…]-3′; P142A, 5′-[…]-3′; P142H, 5′-[…]-3′; P142S, 5′-[…]-3′; Y143C, 5′- […]-3′; Y143H, 5′-[…]-3′; S230R, 5′- […]-3′; R231G, 5′-[…]-3′; R231K, 5′-[…]-3′.

[1] = system: HIV-1 IN double mutant G140S/Q148H; assay: single-round infectivity assay, G140S/Q148H IN double mutant
Procedure: (§4) Figure 2 Antiviral activities of the new compounds against RAL-resistant mutants. The EC50 values were determined using a vector that carries WT HIV-1 IN and the RAL-resistant mutants in a single round infection assay. […] Error bars represent the standard deviations of independent experiments, n = 4, performed in triplicate. The graph has a maximum value of 550 nM.
as §2, §3

HIV-1 IN mutant P142A = assay: single-round infectivity assay, P142A IN mutant
Procedure: as §1, §2, §3

HIV-1 IN mutant P142S = assay: single-round infectivity assay, P142S IN mutant
Procedure: as §1, §2, §3

WT HIV-1 = assay: single-round infectivity assay, WT HIV-1 IN vector; details: Human immunodeficiency virus 1, read-out: EC50 values WT, vector carrying WT HIV-1 IN, single round infection, n = 4; new compounds
Procedure: as §4, §2, §3

HIV-1 IN mutant N117A = assay: single-round infectivity assay, N117A IN mutant
Procedure: (§5) The EC50 values were determined using a vector that carries the IN mutant in a single round infection assay. […] Error bars represent the standard deviations of independent experiments, n = 4, performed in triplicate.
as §2, §3

HIV-1 IN mutant R231G = assay: single-round infectivity assay, R231G IN mutant
Procedure: as §5, with “Figure 5 Antiviral potencies of the new compounds against IN with mutations in the […]. The” for “The”
as §2, §3

HIV-1 IN mutant G118R = assay: single-round infectivity assay, G118R IN mutant
Procedure: as §5, §2, §3

HIV-1 IN mutant Y143C = assay: single-round infectivity assay, Y143C IN mutant; details: EC50 compound / EC50 DTG
Procedure: as §1, §2, §3

HIV-1 IN mutant P142H = assay: single-round infectivity assay, P142H IN mutant
Procedure: as §5
Single round infectivity measurements were determined as done previously.[38]
as §3

HIV-1 IN mutant N117H = assay: single-round infectivity assay, N117H IN mutant
Procedure: as §5, §2, §3

HIV-1 IN mutant N155H = assay: single-round infectivity assay, N155H IN mutant
Procedure: as §4, §2, §3

HIV-1 IN mutant R231K = assay: single-round infectivity assay, R231K IN mutant
Procedure: as §5, with “Figure 5 Antiviral potencies of the new compounds against IN with mutations in the […]. The” for “The”
as §2, §3

HIV-1 IN mutant S119R = assay: single-round infectivity assay, S119R IN mutant
Procedure: as §5, §2, §3

HIV-1 IN mutant Y143R = assay: single-round infectivity assay, Y143R IN mutant
Procedure: as §4, §2, §3

HIV-1 IN mutant S230R = assay: single-round infectivity assay, S230R IN mutant
Procedure: as §5, with “Figure 5 Antiviral potencies of the new compounds against IN with mutations in the […]. The” for “The”
as §2, §3

[2] = fold change in EC50, IN mutant versus WT HIV-1

Structure (SMILES): CS(=O)(=O)CCc1cnc2c(c1)c(N)c(C(=O)NCc1ccc(F)cc1F)c(=O)n2O [6u, 4-Amino-N-(2,4-difluorobenzyl)-1-hydroxy-6-(2-(methylsulfonyl)ethyl)-2-oxo-1,2-dihydro-1,8-naphthyridine-3-carboxamide]
- ratio of the EC50s (our compound relative to DTG) against Y143H (HIV-1 IN mutant Y143H): 17.0
- ratio of the EC50s (our compound relative to DTG) against G140S/Q148H ([1]; EC50 compound / EC50 DTG): 20.3
- EC50 ([1]; Human immunodeficiency virus 1, read-out: EC50 values G140S/Q148H): 118 ± 31.3 nM
- FC G140S/Q148H [1, 2]: 4.4
- ratio of the EC50s (our compound relative to DTG) against P142A (HIV-1 IN mutant P142A; EC50 compound / EC50 DTG): 20.3
- EC50 (HIV-1 IN mutant P142A; Human immunodeficiency virus 1, read-out: EC50 values P142A): 50.8 ± 6.4 nM
- ratio of the EC50s (our compound relative to DTG) against P142S (HIV-1 IN mutant P142S; EC50 compound / EC50 DTG): 23.4
- EC50 (HIV-1 IN mutant P142S; Human immunodeficiency virus 1, read-out: EC50 values P142S): 51.5 ± 2.4 nM
- EC50 (WT HIV-1): 27 ± 3.2 nM
- ratio of the EC50s (our compound relative to DTG) against N117A (HIV-1 IN mutant N117A; EC50 compound / EC50 DTG): 30.0
- EC50 (HIV-1 IN mutant N117A; Human immunodeficiency virus 1, read-out: EC50 values N117A): 15 nM
- FC N117A (HIV-1 IN mutant N117A; [2]): 0.6
- ratio of the EC50s (our compound relative to DTG) against R231G (HIV-1 IN mutant R231G; EC50 compound / EC50 DTG): 22.5
- EC50 (HIV-1 IN mutant R231G; Human immunodeficiency virus 1, read-out: EC50 values R231G): 31.5 ± 4 nM
- FC R231G (HIV-1 IN mutant R231G; [2]): 1.2
- ratio of the EC50s (our compound relative to DTG) against G118R (HIV-1 IN mutant G118R; EC50 compound / EC50 DTG): 16.5
- EC50 (HIV-1 IN mutant G118R; Human immunodeficiency virus 1, read-out: EC50 values G118R): 214 ± 26.3 nM
- FC G118R (HIV-1 IN mutant G118R; [2]): 7.9
- ratio of the EC50s (our compound relative to DTG) against Y143C (HIV-1 IN mutant Y143C): 31.4
- ratio of the EC50s (our compound relative to DTG) against P142H (HIV-1 IN mutant P142H; EC50 compound / EC50 DTG): 16.1
- EC50 (HIV-1 IN mutant P142H; Human immunodeficiency virus 1, read-out: EC50 values P142H): 45.1 ± 5.2 nM
- ratio of the EC50s (our compound relative to DTG) against N117H (HIV-1 IN mutant N117H; EC50 compound / EC50 DTG): 24.3
- EC50 (HIV-1 IN mutant N117H; Human immunodeficiency virus 1, read-out: EC50 values N117H): 58.3 ± 5.9 nM
- FC N117H (HIV-1 IN mutant N117H; [2]): 2.2
- ratio of the EC50s (our compound relative to DTG) against N155H (HIV-1 IN mutant N155H; EC50 compound / EC50 DTG): 9.1
- EC50 (HIV-1 IN mutant N155H; Human immunodeficiency virus 1, read-out: EC50 values N155H): 32.8 ± 6 nM
- FC N155H (HIV-1 IN mutant N155H; [2]): 1.2
- ratio of the EC50s (our compound relative to DTG) against R231K (HIV-1 IN mutant R231K; EC50 compound / EC50 DTG): 18.7
- EC50 (HIV-1 IN mutant R231K; Human immunodeficiency virus 1, read-out: EC50 values R231K, single round infection, n = 4): 78.4 ± 9.9 nM
- FC R231K (HIV-1 IN mutant R231K; [2]): 2.9
- ratio of the EC50s (our compound relative to DTG) against S119R (HIV-1 IN mutant S119R; EC50 compound / EC50 DTG): 24.5
- EC50 (HIV-1 IN mutant S119R; Human immunodeficiency virus 1, read-out: EC50 values S119R): 56.4 ± 11 nM
- FC S119R (HIV-1 IN mutant S119R; [2]): 2.1
- ratio of the EC50s (our compound relative to DTG) against Y143R (HIV-1 IN mutant Y143R; EC50 compound / EC50 DTG): 6.4
- EC50 (HIV-1 IN mutant Y143R; Human immunodeficiency virus 1, read-out: EC50 values Y143R): 27.5 ± 0.4 nM
- FC Y143R (HIV-1 IN mutant Y143R; [2]): 1.0
- ratio of the EC50s (our compound relative to DTG) against S230R (HIV-1 IN mutant S230R; EC50 compound / EC50 DTG): 19.1
- EC50 (HIV-1 IN mutant S230R; Human immunodeficiency virus 1, read-out: EC50 values S230R): 88 ± 14.5 nM
- FC S230R (HIV-1 IN mutant S230R; [2]): 3.3
